Test results: patent US10251854B2, “S-(carboxymethyl)-cysteine pharmaceutical compound and preparation method and use thereof” (Guangzhou Baiyunshan Pharmaceutical Holdings Co., Ltd. …, priority 2013, dated 2019)

What was measured:
Format in all cases: in vivo
Settings in all cases: x ± SD
rat COPD model [1] = assay: Rat COPD model: oxidization indexes (LPO, MDA)
Experimental: (§1) 1.1 Preparation of Rat COPD Models
(§2) A method of establishing a rat COPD model by fumigation plus endotoxin lipopolysaccharide (LPS) endotracheal drop, which is commonly used at home and abroad at present was adopted. The period is 3 months (90 days). Specific method: on the 1st, the 15th, the 29th, the 43rd, the 57th, the 71st and the 85th days of the test, the rats were anesthetized with ethylether, the roots of tongues of the rats were pulled out, and LPS (200 ug/200 ul) was dripped through tracheas by bend gavage needle heads. The rats of the normal group were dripped with physiological saline of equal amount by the same method, and weren't fumigated. The rats of the other five groups were fumigated in a self-made fumigation bin. One side of the fumigation bin was externally connected with a negative pressure pump, and the top thereof was connected with a port for inserting cigarettes. With the negative press pump turned on, the cigarettes were lit, and the smoke of the cigarettes was absorbed into the fumigation bin. In order to prevent the animals from death caused by anoxia, 12 cigarettes were lit every time, and the lid of the fumigation bin was opened 20 min after fumigation for letting in fresh air. The operation was performed 1 h/3 times/day, with the LPS (200 ug/200 ul) being dripped through the tracheas by bend gavage needle heads.
(§3) 1.2 Pharmacological Intervention
(§4) The test was 90 days long. The pharmacological intervention was started from the 15th day, the rats of the positive group were perfused with carbocisteine, the rats of the low, medium and high test groups were perfused with different doses of test medicines, and the rats of the model group and the normal group were perfused with physiological saline of equal amount.
(§5) 1.3 Indexes Determination
(§6) Blood was taken from the orbit of each rat on the second day after the test was over, serum was separated, a complete stomach was cut and washed, lung tissue was preserved, the stomach and the right upper lung were left for pathobiology test, after the rest of the lung was subjected to lung tissue homogenate, the indexes of oxidization and antioxidation, the contents of lipid peroxide (LPO), malondialdehyde (MDA) and reduced glutathione (GSH), the activity of superoxide dismutase (SOD) and the concentration of inflammatory medium TNF-α, IL-8 and IL-6 were detected.

rat COPD model [2] = assay: Rat COPD model: antioxidation indexes (GSH, SOD)
Experimental: as §1, §2, §3, §4, §5, §6

rat COPD model [3] = assay: Rat COPD model: inflammation indexes (TNF-α, IL-8, IL-6)
Experimental: as §1, §2, §3, §4, §5, §6

## N.N.N[C@H](CSCC(=O)O)C(=O)O.O [D-ammonium, S-(carboxymethyl)-D-cysteine ammonium salt monohydrate]
Rat COPD model [1]; high dose group
  LPO Lung tissue: 17.33 ± 4.07 nmol/mL
  LPO Serum: 4.97 ± 1.74 nmol/mL
  MDA Lung tissue: 4.35 ± 0.63 µmol/mL
  MDA Serum: 7.05 ± 1.59 µmol/mL
Rat COPD model [1]; low dose group
  LPO Lung tissue: 20.35 ± 3.70 nmol/mL
  LPO Serum: 6.07 ± 1.55 nmol/mL
  MDA Lung tissue: 5.12 ± 1.11 µmol/mL
  MDA Serum: 8.28 ± 2.09 µmol/mL
Rat COPD model [1]; medium dose group
  LPO Lung tissue: 18.38 ± 2.86 nmol/mL
  LPO Serum: 5.20 ± 0.96 nmol/mL
  MDA Lung tissue: 4.90 ± 0.43 µmol/mL
  MDA Serum: 7.75 ± 1.93 µmol/mL
Rat COPD model [2]; high dose group
  GSH Lung tissue: 120.13 ± 25.76 µmol/L
  GSH Serum: 158.76 ± 29.50 µmol/L
  SOD Lung tissue: 70.51 ± 20.90 U/mL
  SOD Serum: 98.28 ± 19.15 U/mL
Rat COPD model [2]; low dose group
  GSH Lung tissue: 94.54 ± 17.50 µmol/L
  GSH Serum: 120.16 ± 17.05 µmol/L
  SOD Lung tissue: 52.17 ± 16.44 U/mL
  SOD Serum: 72.30 ± 12.66 U/mL
Rat COPD model [2]; medium dose group
  GSH Lung tissue: 109.68 ± 24.63 µmol/L
  GSH Serum: 131.33 ± 24.17 µmol/L
  SOD Lung tissue: 60.31 ± 14.12 U/mL
  SOD Serum: 88.85 ± 17.47 U/mL
Rat COPD model [3]; high dose group
  IL-6 Lung tissue: 13.83 ± 6.19 pg/mL
  IL-6 Serum: 7.93 ± 3.10 pg/mL
  IL-8 Lung tissue: 11.44 ± 1.64 pg/mL
  IL-8 Serum: 7.38 ± 1.54 pg/mL
  TNF-α Lung tissue: 21.33 ± 8.57 pg/mL
  TNF-α Serum: 17.19 ± 4.05 pg/mL
Rat COPD model [3]; low dose group
  IL-6 Lung tissue: 16.36 ± 4.78 pg/mL
  IL-6 Serum: 10.76 ± 2.90 pg/mL
  IL-8 Lung tissue: 13.09 ± 2.98 pg/mL
  IL-8 Serum: 8.56 ± 2.79 pg/mL
  TNF-α Lung tissue: 28.26 ± 12.06 pg/mL
  TNF-α Serum: 21.12 ± 4.11 pg/mL
Rat COPD model [3]; medium dose group
  IL-6 Lung tissue: 15.61 ± 4.40 pg/mL
  IL-6 Serum: 9.09 ± 3.23 pg/mL
  IL-8 Lung tissue: 11.90 ± 1.77 pg/mL
  IL-8 Serum: 8.05 ± 1.72 pg/mL
  TNF-α Lung tissue: 25.02 ± 10.89 pg/mL
  TNF-α Serum: 19.86 ± 3.58 pg/mL

## S-(carboxymethyl)-D-cysteine arginine salt monohydrate [D-arginine]
Rat COPD model [1]; high dose group
  LPO Lung tissue: 18.74 ± 3.47 nmol/mL
  LPO Serum: 5.26 ± 0.88 nmol/mL
  MDA Lung tissue: 4.58 ± 0.66 µmol/mL
Rat COPD model [1]; low dose group
  LPO Lung tissue: 21.98 ± 2.16 nmol/mL
  LPO Serum: 6.32 ± 1.34 nmol/mL
  MDA Lung tissue: 5.21 ± 0.72 µmol/mL
  MDA Serum: 8.66 ± 2.20 µmol/mL
Rat COPD model [1]; medium dose group
  LPO Lung tissue: 20.62 ± 3.65 nmol/mL
  LPO Serum: 5.80 ± 1.07 nmol/mL
  MDA Lung tissue: 5.01 ± 0.41 µmol/mL
Rat COPD model [2]; high dose group
  GSH Lung tissue: 114.54 ± 20.57 µmol/L
  GSH Serum: 144.17 ± 27.40 µmol/L
  SOD Lung tissue: 62.24 ± 16.47 U/mL
  SOD Serum: 92.32 ± 20.65 U/mL
Rat COPD model [2]; low dose group
  GSH Lung tissue: 92.23 ± 13.38 µmol/L
  SOD Lung tissue: 46.86 ± 19.25 U/mL
  SOD Serum: 74.53 ± 8.70 U/mL
Rat COPD model [2]; medium dose group
  GSH Lung tissue: 107.77 ± 18.26 µmol/L
  SOD Lung tissue: 54.4 ± 12.18 U/mL
  SOD Serum: 83.74 ± 15.27 U/mL
Rat COPD model [3]; high dose group
  IL-6 Lung tissue: 13.69 ± 4.33 pg/mL
  IL-6 Serum: 8.70 ± 2.35 pg/mL
  IL-8 Lung tissue: 10.82 ± 2.59 pg/mL
  IL-8 Serum: 7.74 ± 1.28 pg/mL
  TNF-α Lung tissue: 24.40 ± 6.09 pg/mL
  TNF-α Serum: 19.73 ± 6.08 g* pg/mL
Rat COPD model [3]; low dose group
  IL-6 Lung tissue: 17.03 ± 7.27 pg/mL
  IL-6 Serum: 11.07 ± 2.60 pg/mL
  IL-8 Lung tissue: 12.69 ± 2.33 pg/mL
  IL-8 Serum: 9.70 ± 1.35 pg/mL
  TNF-α Lung tissue: 30.10 ± 9.44 pg/mL
  TNF-α Serum: 23.12 ± 4.20 pg/mL
Rat COPD model [3]; medium dose group
  IL-6 Lung tissue: 15.44 ± 5.64 pg/mL
  IL-6 Serum: 10.38 ± 3.54 pg/mL
  IL-8 Lung tissue: 12.01 ± 2.11 pg/mL
  IL-8 Serum: 8.26 ± 2.67 pg/mL
  TNF-α Lung tissue: 28.28 ± 13.57 pg/mL
  TNF-α Serum: 20.09 ± 5.10 pg/mL

## S-(carboxymethyl)-L-cysteine arginine salt monohydrate [L-arginine]
Rat COPD model [1]; high dose group
  LPO Lung tissue: 16.09 ± 3.22 nmol/mL
  LPO Serum: 4.25 ± 0.99 nmol/mL
  MDA Lung tissue: 3.96 ± 0.57 µmol/mL
  MDA Serum: 6.79 ± 1.83 µmol/mL
Rat COPD model [1]; low dose group
  LPO Lung tissue: 19.66 ± 3.90 nmol/mL
  LPO Serum: 5.78 ± 1.65 nmol/mL
  MDA Lung tissue: 4.77 ± 0.72 µmol/mL
  MDA Serum: 8.02 ± 1.54 µmol/mL
Rat COPD model [1]; medium dose group
  LPO Lung tissue: 17.78 ± 2.98 nmol/mL
  LPO Serum: 4.87 ± 1.90 nmol/mL
  MDA Lung tissue: 4.40 ± 0.60 µmol/mL
  MDA Serum: 7.34 ± 2.44 µmol/mL
Rat COPD model [2]; high dose group
  GSH Lung tissue: 128.45 ± 24.09 µmol/L
  SOD Lung tissue: 72.36 ± 14.55 U/mL
  SOD Serum: 116.34 ± 27.86 U/mL
Rat COPD model [2]; low dose group
  GSH Lung tissue: 102.45 ± 18.97 µmol/L
  GSH Serum: 134.21 ± 26.45 µmol/L
  SOD Lung tissue: 55.67 ± 13.29 U/mL
  SOD Serum: 82.67 ± 19.45 U/mL
Rat COPD model [2]; medium dose group
  GSH Lung tissue: 116.22 ± 22.73 µmol/L
  GSH Serum: 159.33 ± 30.20 µmol/L
  SOD Lung tissue: 65.44 ± 17.33 U/mL
  SOD Serum: 93.20 ± 20.77 U/mL
Rat COPD model [3]; high dose group
  IL-6 Lung tissue: 12.77 ± 4.65 pg/mL
  IL-6 Serum: 6.69 ± 1.92 pg/mL
  IL-8 Lung tissue: 9.09 ± 1.89 pg/mL
  IL-8 Serum: 6.24 ± 1.89 pg/mL
  TNF-α Lung tissue: 20.36 ± 7.41 pg/mL
  TNF-α Serum: 15.7 ± 5.16 pg/mL
Rat COPD model [3]; low dose group
  IL-6 Lung tissue: 15.80 ± 6.02 pg/mL
  IL-6 Serum: 9.17 ± 3.08 pg/mL
  IL-8 Lung tissue: 11.88 ± 303 pg/mL
  IL-8 Serum: 8.56 ± 2.33 pg/mL
  TNF-α Lung tissue: 26.17 ± 8.33 pg/mL
  TNF-α Serum: 20.22 ± 4.77 pg/mL
Rat COPD model [3]; medium dose group
  IL-6 Lung tissue: 14.22 ± 5.13 pg/mL
  IL-6 Serum: 7.66 ± 2.83 pg/mL
  IL-8 Lung tissue: 9.98 ± 2.43 pg/mL
  IL-8 Serum: 7.39 ± 2.02 pg/mL
  TNF-α Lung tissue: 23.65 ± 11.21 pg/mL
  TNF-α Serum: 18.6 ± 3.89 pg/mL
